The target in this test is PRMT5/MEP50 (Homo sapiens (Human), UniProt O14744). Put plainly: PRMT5 Biochemical Assay (PRMT5/MEP50 enzyme assay on peptide substrate, 3H-SAM Flashplate). From the text: S-adenosylmethionine (SAM), S-adenosylhomocysteine (SAH), bicine, KCl, Tween20, dimethylsulfoxide (DMSO), bovine skin gelatin (BSG), and Tris(2-carboxyethyl)phosphine hydrochloride solution (TCEP) were purchased from Sigma-Aldrich at the highest level of purity possible. ^3H-SAM was purchase from American Radiolabeled Chemicals with a specific activity of 80 Ci/mmol. 384-well streptavidin Flashplates were purchased from PerkinElmer.
Peptide representative of human histone H4 residues 1-15 was synthesized with a C-terminal linker-affinity tag motif and a C-terminal amide cap by 21st Century Biochemicals. The peptide was high high-performance liquid chromatography (HPLC) purified to greater than 95% purity and confirmed by liquid chromatography mass spectrometry (LC-MS). The sequence was Ac-[…][K-Biot]-amide (SEQ ID NO.:3).
Molecular Biology: Full-length human PRMT5 (NM_006109.3) transcript variant 1 clone was amplified from a fetal brain cDNA library, incorporating flanking 5′ sequence encoding a FLAG tag ([…]) (SEQ ID NO.:4) fused directly to Ala 2 of PRMT5. Full-length human MEP50 (NM_024102) clone was amplified from a human testis cDNA library incorporating a 5′ sequence encoding a 6-histidine tag (MHHHHHH) (SEQ ID NO.:5) fused directly to Arg 2 of MEP50. The amplified genes were sublconed into pENTR/D/TEV (Life Technologies) and subsequently transferred by Gateway™ attL×attR recombination to pDEST8 baculvirus expression vector (Life Technologies).
Recombinant baculovirus and Baculovirus-Infected Insect Cells (BIIC) were generated according to Bac-to-Bac kit instructions (Life Technologies) and Wasilko, 2006, respectively. Protein over-expression was accomplished by infecting exponentially growing Spodoptera frugiperda (SF9) cell culture at 1.2×10^6 cell/ml with a 5000 fold dilution of BIIC stock. Infections were carried out at 27° C. for 72 hours, harvested by centrifugation, and stored at −80° C. for purification.
Flag-PRMT5/6His-MeP50 was eluted with 300 mM Imidazole in the same buffer. The purity of recovered protein was 87%. Reference: Wasilko, D. J. and S. E. Lee: “TIPS: titerless infected-cells preservation and scale-up” Bioprocess J., 5 (2006), pp. 29-32.
General Procedure for PRMT5/MEP50 Enzyme Assays on Peptide Substrates.
The assays were all performed in a buffer consisting of 20 mM Bicine (pH=7.6), 1 mM TCEP, 0.005% BSG, and 0.002% Tween20, prepared on the day of use. Compounds in 100% DMSO (1 ul) were spotted into a polypropylene 384-well V-bottom plates (Greiner) using a Platemate Plus outfitted with a 384-channel head (Thermo Scientific). DMSO (1 ul) was added to Columns 11, 12, 23, 24, rows A-H for the maximum signal control and 1 ul of SAH, a known product and inhibitor of PRMT5/MEP50, was added to columns 11, 12, 23, 24, rows I-P for the minimum signal control. A cocktail (40 ul) containing the PRMT5/MEP50 enzyme and the peptide was added by Multidrop Combi (Thermo-Fisher). The compounds were allowed to incubate with PRMT5/MEP50 for 30 min at 25 degrees Celsius, then a cocktail (10 ul) containing ^3H-SAM was added to initiate the reaction (final volume=51 ul). The final concentrations of the components were as follows: PRMT5/MEP50 was 4 nM, ^3H-SAM was 75 nM, peptide was 40 nM, SAH in the minimum signal control wells was 100 uM, and the DMSO concentration was 1%. The assays were stopped by the addition of non-radioactive SAM (10 ul) to a final concentration of 600 uM, which dilutes the ^3H-SAM to a level where its incorporation into the peptide substrate is no longer detectable. 50 ul of the reaction in the 384-well polypropylene plate was then transferred to a 384-well Flashplate and the biotinylated peptides were allowed to bind to the streptavidin surface for at least 1 hour before being washed three times with 0.1% Tween20 in a Biotek ELx405 plate washer. […]

Structures are written as SMILES.

PRMT5/MEP50, sequence (O14744 other isoform, or with tags, fused parts or gaps): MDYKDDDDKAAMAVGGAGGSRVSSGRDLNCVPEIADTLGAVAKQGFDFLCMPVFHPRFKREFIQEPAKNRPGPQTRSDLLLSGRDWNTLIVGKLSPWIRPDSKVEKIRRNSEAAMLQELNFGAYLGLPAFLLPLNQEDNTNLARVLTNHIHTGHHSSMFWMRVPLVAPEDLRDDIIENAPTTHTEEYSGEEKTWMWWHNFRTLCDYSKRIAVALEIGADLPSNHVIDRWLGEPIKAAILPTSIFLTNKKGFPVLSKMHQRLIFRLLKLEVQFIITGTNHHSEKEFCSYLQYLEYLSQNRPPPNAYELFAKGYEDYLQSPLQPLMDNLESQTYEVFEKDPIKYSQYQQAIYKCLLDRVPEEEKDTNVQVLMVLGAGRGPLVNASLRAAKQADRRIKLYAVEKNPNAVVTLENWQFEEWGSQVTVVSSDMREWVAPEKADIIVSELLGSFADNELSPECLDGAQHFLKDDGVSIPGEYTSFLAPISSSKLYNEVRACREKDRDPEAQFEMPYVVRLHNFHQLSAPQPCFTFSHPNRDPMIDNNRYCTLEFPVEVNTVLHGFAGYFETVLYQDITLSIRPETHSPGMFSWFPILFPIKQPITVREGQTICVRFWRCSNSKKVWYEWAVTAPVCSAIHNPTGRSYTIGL
PRMT5/MEP50, sequence (Q9BQA1 other isoform, or with tags, fused parts or gaps partner): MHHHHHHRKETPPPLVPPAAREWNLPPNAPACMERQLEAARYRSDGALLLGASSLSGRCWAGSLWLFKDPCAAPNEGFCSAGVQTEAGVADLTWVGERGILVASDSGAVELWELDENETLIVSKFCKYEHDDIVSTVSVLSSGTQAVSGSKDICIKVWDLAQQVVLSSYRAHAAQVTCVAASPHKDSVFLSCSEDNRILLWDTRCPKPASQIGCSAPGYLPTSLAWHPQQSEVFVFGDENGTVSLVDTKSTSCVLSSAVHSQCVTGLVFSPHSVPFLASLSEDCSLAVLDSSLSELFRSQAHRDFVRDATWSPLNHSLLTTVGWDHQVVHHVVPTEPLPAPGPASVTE

One may read the IC50 as the concentration that inhibits the measured activity by half. Turning to `OC(COc1ccc(C2CCCNC2)cc1)CN1CCc2ccccc2C1` (stereo not shown) [Compound 47], the IC50 was less than 0.1 µM.
Then `OC(CNc1cc(-c2ccc3ncn(C4CCNCC4)c3c2)ccn1)CN1CCc2ccccc2C1` (stereo not shown) [Compound 241], with less than 0.1 µM.
With `Cn1cnc2ccc(-c3ccnc(NCC(O)CN4CCc5ccccc5C4)c3)nc21` (stereo not shown) [Compound 238, 1-(3,4-dihydroisoquinolin-2(1H)-yl)-3-((4-(3-methyl-3H-imidazo[4,5-b]pyridin-5-yl)pyridin-2-yl)amino)propan-2-ol] the figure was less than 0.1 µM.
On to `COc1ccc(Cn2ccc(-c3ccc(OC[C@H](O)CN4CCc5ccccc5C4)cc3)n2)cc1` [Compound 41], for which the IC50 lay within 1 to 10 µM.
With `OC(CNc1cc(-c2ccc3ncn(C4CNC4)c3c2)ccn1)CN1CCc2ccccc2C1` (stereo not shown) [Compound 229] the figure was less than 0.1 µM; with `CN1CCC(n2cnc3ccc(-c4ccnc(NCC(O)CN5CCc6ccccc6C5)c4)cc32)C1` (stereo not shown) [Compound 250], less than 0.1 µM; with `Cn1cncc1C(=O)Nc1cccc(OC[C@@H](O)CN2CCc3ccccc3C2)c1` [Compound 260], 1 to 10 µM.
With `OC(COc1cccc(-c2ccc3ncn(C4CCNC4)c3c2)c1)CN1CCc2ccccc2C1` (stereo not shown) [Compound 209, 1-(3,4-dihydroisoquinolin-2(1H)-yl)-3-(3-(1-(pyrrolidin-3-yl)-1H-benzo[d]imidazol-6-yl)phenoxy)propan-2-ol] the figure was less than 0.1 µM; with `Cn1cnc2ccc(-c3cccc(OC[C@H](O)CN4CCc5ccccc5C4)c3)cc21` [Compound 174], less than 0.1 µM; with `CN1CCC(OCC(O)CN2CCc3ccccc3C2)C1` (stereo not shown) [Compound 307], more than 40 µM.
Then `Cn1cc2ccc(-c3cccc(NCC(O)CN4CCc5ccccc5C4)c3)nc2n1` (stereo not shown) [Compound 261], with less than 0.1 µM; and `CN1CCC(n2cnc3ccc(-c4cccc(OCC(O)CN5CCc6ccccc6C5)c4)cc32)C1` (stereo not shown) [Compound 219], with less than 0.1 µM; and `CC(=O)N1CCC(n2ccc3cnc(-c4ccnc(NCC(O)CN5CCc6ccccc6C5)c4)nc32)CC1` (stereo not shown) [Compound 256], with less than 0.1 µM.
For `O=C(Cn1ccc2cnc(-c3ccnc(NCC(O)CN4CCc5ccccc5C4)c3)nc21)N1CCCC1` (stereo not shown) [Compound 233], the IC50 was less than 0.1 µM.
Then `Cn1cncc1C(=O)Nc1cccc(OC[C@H](O)CN2CCc3ccccc3C2)c1` [Compound 259], with 0.101 to 1 µM.
With `Cn1cnc2ccc(-c3cccc(OCC(O)CN4Cc5ccccc5C(F)(F)C4)c3)cc21` (stereo not shown) [Compound 277] the figure was more than 10 µM; with `Cn1cnc2ccc(-c3cccc(OC[C@@H](O)CN4CCc5ccccc5C4)c3)cc21` [Compound 173], 0.101 to 1 µM; with `CN1CCC(n2cnc3ccc(-c4cccc(OCC(O)CN5CCc6ccccc6C5)c4)cc32)CC1` (stereo not shown) [Compound 221], less than 0.1 µM.
`OC(CNc1cc(-c2ccc3ncn(C4CCNC4)c3c2)ccn1)CN1CCc2ccccc2C1` (stereo not shown) [Compound 240]: the IC50 was less than 0.1 µM.
Take `OC(CNc1cc(-c2ncc3ccn(C4CCNCC4)c3n2)ccn1)CN1CCc2ccccc2C1` (stereo not shown) [Compound 255]: the IC50 was less than 0.1 µM.
Then `CC(=O)N(CC(O)CN1CCc2ccccc2C1)c1cccc(-c2ccc3ncn(C)c3c2)c1` (stereo not shown) [Compound 273, N-(3-(3,4-dihydroisoquinolin-2(1H)-yl)-2-hydroxypropyl)-N-(3-(1-methyl-1H-benzo[d]imidazol-6-yl)phenyl)acetamide], with less than 0.1 µM.
As for `O[C@@H](COc1cccc(CNC2CCCC2)c1)CN1CCc2ccccc2C1` [Compound 23], the IC50 fell in the range of 1 to 10 µM.
On to `OC(COCC1CCCCO1)CN1CCc2ccccc2C1` (stereo not shown) [Compound 304], for which the 50% inhibitory concentration (IC50) is more than 40 µM.
Consider `OC(COc1cccc(-c2ccc3ncn(C4CCNCC4)c3c2)c1)CN1CCc2ccccc2C1` (stereo not shown) [Compound 220], for which the IC50 was less than 0.1 µM.
Then `O[C@H](COc1cccc(-c2cccc3cccnc23)c1)CN1CCc2ccccc2C1` [Compound 258, (S)-1-(3,4-dihydroisoquinolin-2(1H)-yl)-3-(3-(quinolin-8-yl)phenoxy)propan-2-ol], with 0.101 to 1 µM; and `Cn1cnc2ccc(-c3cccc(OCC(O)CN4CCc5ccccc5C4COc4ccccc4)c3)cc21` (stereo not shown) [Compound 178], with more than 40 µM; and `OC(COC1CCCNC1)CN1CCc2ccccc2C1` (stereo not shown) [Compound 297], with more than 40 µM.
As for `O=C(Cn1ccc2cnc(-c3ccnc(NCC(O)CN4CCc5ccccc5C4)c3)nc21)N1CCOCC1` (stereo not shown) [Compound 234, 2-(2-(2-((3-(3,4-dihydroisoquinolin-2(1H)-yl)-2-hydroxypropyl)amino)pyridin-4-yl)-7H-pyrrolo[2,3-d]pyrimidin-7-yl)-1-morpholinoethanone], the IC50 is less than 0.1 µM.
With `Cn1cnc2ccc(-c3cccc(NCC(O)CN4CCc5ccccc5C4)c3)cc21` (stereo not shown) [Compound 102, 1-(3,4-dihydroisoquinolin-2(1H)-yl)-3-((3-(1-methyl-1H-benzo[d]imidazol-6-yl)phenyl)amino)propan-2-ol] the figure was less than 0.1 µM.
Then `Cn1cnc2ccc(-c3cccc(OCC(O)CN4CCc5ccccc5C4CC(N)=O)c3)cc21` (stereo not shown) [Compound 202], with more than 40 µM; and `CN1CC(n2cnc3ccc(-c4ccnc(NCC(O)CN5CCc6ccccc6C5)c4)cc32)C1` (stereo not shown) [Compound 230], with less than 0.1 µM; and `OC(COc1cccc(-c2ccc3ncn(C4COC4)c3c2)c1)CN1CCc2ccccc2C1` (stereo not shown) [Compound 269], with less than 0.1 µM.
With `COc1ccc(Cn2nccc2-c2ccc(OC[C@@H](O)CN3CCc4ccccc4C3)cc2)cc1` [Compound 38], the IC50 is more than 40 µM.
With `OC(CNc1cc(-c2ccc3ncn(C4COC4)c3c2)ccn1)CN1CCc2ccccc2C1` (stereo not shown) [Compound 265] the figure was less than 0.1 µM.
For the compound `Cn1cnc2ccc(-c3ccnc(NCC(O)CN4CCc5ccccc5C4)c3)cc21` (stereo not shown) [Compound 118, 1-(3,4-Dihydroisoquinolin-2(1H)-yl)-3-((4-(1-methyl-1H-benzo[d]imidazol-6-yl)pyridin-2-yl)amino)propan-2-ol], the IC50 is less than 0.1 µM.
With `COc1ccc(Cn2nccc2-c2ccc(OC[C@H](O)CN3CCc4ccccc4C3)cc2)cc1` [Compound 37] the figure was 1 to 10 µM.
`CN1CCC(n2cnc3ccc(-c4ccnc(NCC(O)CN5CCc6ccccc6C5)c4)cc32)CC1` (stereo not shown) [Compound 252]: the IC50 is less than 0.1 µM.
With `OC(COc1cccc(-c2ccc3ncsc3c2)c1)CN1CCc2ccccc2C1` (stereo not shown) [Compound 123, 1-(3-(benzo[d]thiazol-6-yl)phenoxy)-3-(3,4-dihydroisoquinolin-2(1H)-yl)propan-2-ol] the figure was 0.101 to 1 µM; with `CC1CN(CC(O)COc2cccc(CNC3CCCC3)c2)Cc2ccccc21` (stereo not shown) [Compound 56], more than 40 µM.
With `CN1CC(n2cnc3ccc(-c4cccc(OCC(O)CN5CCc6ccccc6C5)c4)cc32)C1` (stereo not shown) [Compound 218, 1-(3,4-dihydroisoquinolin-2(1H)-yl)-3-(3-(1-(1-methylazetidin-3-yl)-1H-benzo[d]imidazol-6-yl)phenoxy)propan-2-ol] the figure was less than 0.1 µM; with `Cn1ncc2ccc(-c3ccnc(NCC(O)CN4CCc5ccccc5C4)c3)cc21` (stereo not shown) [Compound 226], less than 0.1 µM.
Turning to `CN(CC(O)CN1CCc2ccccc2C1)c1cccc(CNC2CCOCC2)c1` (stereo not shown) [Compound 116], the IC50 is less than 0.1 µM.
With `Cn1ncc2ccc(-c3cccc(OCC(O)CN4CCc5ccccc5C4)c3)cc21` (stereo not shown) [Compound 106] the figure was less than 0.1 µM.
